Laboratory results taken from patent US12371454B2, “Cyclic peptide compound having Kras inhibitory action” (priority 2019, dated 2025).
Positions of bridges follow the written chain, without caps; N, C: chain ends. Non-standard residues stand in square brackets, D forms with d. Residues, ends and D or L forms follow the SMILES beside them. *: point of attachment. hPhe(3-Cl-4-CF3) = N[C@@H](CCc1ccc(C(F)(F)F)c(Cl)c1)C(=O)O; NEtPhe(4-Me) = CCN[C@@H](Cc1ccc(C)cc1)C(=O)O; NMeAbu(4,4,4-F3) = CN[C@@H](CC(F)(F)F)C(=O)O; NMePhe(4-Me) = CN[C@@H](Cc1ccc(C)cc1)C(=O)O; Abu(4,4,4-F3) = N[C@@H](CC(F)(F)F)C(=O)O; NMeAla(cPent) = CN[C@@H](CC1CCCC1)C(=O)O; NMeGly(cPent) = CN[C@H](C(=O)O)C1CCCC1; NMeCha = CN[C@@H](CC1CCCCC1)C(=O)O; NMehLeu = CN[C@@H](CCC(C)C)C(=O)O; NMeAhp(2) = CCCCC[C@H](NC)C(=O)O; NMeCba = CN[C@@H](CC1CCC1)C(=O)O; NMeChg = CN[C@H](C(=O)O)C1CCCCC1; NMeD = CN[C@@H](CC(=O)O)C(=O)O; NMeL = CN[C@@H](CC(C)C)C(=O)O; NMeNle = CCCC[C@H](NC)C(=O)O; NMeV = CN[C@H](C(=O)O)C(C)C; d(β3hA) = C[C@@H](N)CC(=O)O; NMeS = CN[C@@H](CO)C(=O)O; NMeA = CN[C@@H](C)C(=O)O; Piperidide = C1CCN(*)CC1; Pyrrolidide = C1CCN(*)C1; Ac5c = NC1(C(=O)O)CCCC1; Aze = O=C(O)[C@@H]1CCN1; Cyclopropyl = C1CC1*; Sar = CNCC(=O)O

Experiments:
[1] = target: T1, Kras and SOS1 (biotin-tagged human Kras loaded with GDP, His-tagged human SOS1) (Homo sapiens, UniProt P01116, G12D); assay: Protein-protein interaction inhibition between Kras and SOS1 (KrasGl2D-SOS PPI) using AlphaScreen; assay type: binding; conditions: AlphaScreen; biotin-tagged human Kras loaded with GDP, His-tagged human SOS1; read-out: KRAS G12D-SOS PPI IC50
T1 construct: made in house; host or cells: E. coli (stated for Kras only)
T1 sequence (P01116 1-188 isoform P01116-2 G12D): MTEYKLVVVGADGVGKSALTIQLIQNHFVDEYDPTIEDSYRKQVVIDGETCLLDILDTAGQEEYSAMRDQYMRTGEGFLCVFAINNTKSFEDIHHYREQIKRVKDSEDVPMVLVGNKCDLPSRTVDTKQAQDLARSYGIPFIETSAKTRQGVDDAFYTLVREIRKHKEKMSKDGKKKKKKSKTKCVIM
How it was run: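 Kras was produced in E. coli, purified, then loaded with GDP. It was paired via streptavidin acceptor beads with His-SOS1 held on nickel donor beads, and proximity signal at 520-620 nm was read after 680 nm illumination.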

[2] = test system: Human pancreatic cancer cell line AsPC-1; assay: Measurement of AsPC-1 cell growth inhibition (AsPC-1 CGI); assay type: cell-based; conditions: 96 h
How it was run: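 AsPC-1 cells in 15% FBS RPMI-1640 were exposed to test compound for 96 hours at 37° C, with CellTiter-Glo as endpoint.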

SMILES	IC50 [1]	IC50 [2]
CC[C@H](C)[C@@H]1NC(=O)[C@H](CC(F)(F)F)N(C)C(=O)C[C@@H](C(=O)N2CCCCC2)N(C)C(=O)[C@H](C(C)C)N(C)C(=O)C2(CCCC2)NC(=O)[C@@H]2CCCN2C(=O)[C@H](CCc2ccc(C(F)(F)F)c(Cl)c2)NC(=O)CN(C)C(=O)[C@H](CC2CCCCC2)N(C)C(=O)[C@@H]2CCN2C(=O)[C@H](C)N(C)C1=O [Compound 1704] ([NMeAbu(4,4,4-F3)]I[NMeA][Aze][NMeCha][Sar][hPhe(3-Cl-4-CF3)]P[Ac5c][NMeV][NMeD]-Piperidide; lactam N-11)	6 nM	100 to 500 nM
CC[C@H](C)[C@@H]1NC(=O)[C@H](CC(C)C)N(C)C(=O)C[C@@H](C(=O)N2CCCCC2)N(C)C(=O)[C@H](C(C)C)N(C)C(=O)C2(CCCC2)NC(=O)[C@@H]2CCCN2C(=O)[C@H](CCc2ccc(C(F)(F)F)c(Cl)c2)NC(=O)CN(C)C(=O)[C@H](CCC(C)C)N(C)C(=O)[C@@H]2CCN2C(=O)[C@H](C)N(C)C1=O [Compound 1709] ([NMeL]I[NMeA][Aze][NMehLeu][Sar][hPhe(3-Cl-4-CF3)]P[Ac5c][NMeV][NMeD]-Piperidide; lactam N-11)	10 nM	100 to 500 nM
CC[C@H](C)[C@@H]1NC(=O)[C@H](CC(C)C)N(C)C(=O)C[C@@H](C(=O)N2CCCC2)N(C)C(=O)[C@H](C(C)C)N(C)C(=O)C2(CCCC2)NC(=O)[C@@H]2CCCN2C(=O)[C@H](CCc2ccc(C(F)(F)F)c(Cl)c2)NC(=O)CN(C)C(=O)[C@H](CC2CCCCC2)N(C)C(=O)CN(C)C(=O)CN(C)C1=O [Compound 1711] ([NMeL]I[Sar][Sar][NMeCha][Sar][hPhe(3-Cl-4-CF3)]P[Ac5c][NMeV][NMeD]-Pyrrolidide; lactam N-11)	0.78 nM	100 to 500 nM
CC[C@H](C)[C@@H]1NC(=O)[C@H](CO)N(C)C(=O)C[C@@H](C(=O)N2CCCCC2)N(C)C(=O)[C@H](C2CCCCC2)N(C)C(=O)C2(CCCC2)NC(=O)[C@@H]2CCCN2C(=O)[C@H](CCc2ccc(C(F)(F)F)c(Cl)c2)NC(=O)CN(C)C(=O)[C@H](CC2CCCCC2)N(C)C(=O)CN(C)C(=O)CN(C)C1=O [Compound 1713] ([NMeS]I[Sar][Sar][NMeCha][Sar][hPhe(3-Cl-4-CF3)]P[Ac5c][NMeChg][NMeD]-Piperidide; lactam N-11)	0.49 nM	100 to 500 nM
CC[C@H](C)[C@@H]1NC(=O)[C@H](CC(C)C)N(C)C(=O)C[C@@H](C)NC(=O)[C@H](C2CCCC2)N(C)C(=O)C2(CCCC2)NC(=O)[C@@H]2CCCN2C(=O)[C@H](CCc2ccc(C(F)(F)F)c(Cl)c2)NC(=O)CN(C)C(=O)[C@H](Cc2ccc(C)cc2)N(CC)C(=O)[C@@H]2CCN2C(=O)[C@H](C)N(C)C1=O [Compound 1714] (cyclo([Ac5c][NMeGly(cPent)][d(β3hA)][NMeL]I[NMeA][Aze][NEtPhe(4-Me)][Sar][hPhe(3-Cl-4-CF3)]P))	2.3 nM	50 to 100 nM
CC[C@H](C)[C@@H]1NC(=O)[C@H](CC(C)C)N(C)C(=O)C[C@@H](C(=O)N2CCCCC2)N(C)C(=O)[C@H](C(C)C)N(C)C(=O)C2(CCCC2)NC(=O)[C@@H]2CCCN2C(=O)[C@H](CCc2ccc(C(F)(F)F)c(Cl)c2)NC(=O)CN(C)C(=O)[C@H](CC2CCC2)N(C)C(=O)[C@@H]2CCN2C(=O)[C@H](C)N(C)C1=O [Compound 1716] ([NMeL]I[NMeA][Aze][NMeCba][Sar][hPhe(3-Cl-4-CF3)]P[Ac5c][NMeV][NMeD]-Piperidide; lactam N-11)	7.9 nM	100 to 500 nM
CC[C@H](C)[C@@H]1NC(=O)[C@H](C)N(C)C(=O)C[C@@H](C(=O)N2CCCC2)N(C)C(=O)[C@H](C2CCCCC2)N(C)C(=O)C2(CCCC2)NC(=O)[C@@H]2CCCN2C(=O)[C@H](CCc2ccc(C(F)(F)F)c(Cl)c2)NC(=O)CN(C)C(=O)[C@H](CC2CCCCC2)N(C)C(=O)CN(C)C(=O)CN(C)C1=O [Compound 1720] ([NMeA]I[Sar][Sar][NMeCha][Sar][hPhe(3-Cl-4-CF3)]P[Ac5c][NMeChg][NMeD]-Pyrrolidide; lactam N-11)	0.58 nM	50 to 100 nM
CC[C@H](C)[C@@H]1NC(=O)[C@H](CC(C)C)N(C)C(=O)C[C@@H](C(=O)N2CCCC2)N(C)C(=O)[C@H](C2CCCCC2)N(C)C(=O)C2(CCCC2)NC(=O)[C@@H]2CCCN2C(=O)[C@H](CCc2ccc(C(F)(F)F)c(Cl)c2)NC(=O)CN(C)C(=O)[C@H](CC2CCCCC2)N(C)C(=O)[C@@H]2CCN2C(=O)[C@H](C)N(C)C1=O [Compound 1726] ([NMeL]I[NMeA][Aze][NMeCha][Sar][hPhe(3-Cl-4-CF3)]P[Ac5c][NMeChg][NMeD]-Pyrrolidide; lactam N-11)	0.68 nM	20 to 50 nM
CC[C@H](C)[C@@H]1NC(=O)[C@H](CC(C)C)N(C)C(=O)C[C@@H](C(=O)N(C)C)N(C)C(=O)[C@H](C(C)C)N(C)C(=O)C2(CCCC2)NC(=O)[C@@H]2CCCN2C(=O)[C@H](CCc2ccc(C(F)(F)F)c(Cl)c2)NC(=O)CN(C)C(=O)[C@H](CC2CCCCC2)N(C)C(=O)[C@@H]2CCN2C(=O)[C@H](C)N(C)C1=O [Compound 1728] ([NMeL]I[NMeA][Aze][NMeCha][Sar][hPhe(3-Cl-4-CF3)]P[Ac5c][NMeV][NMeD]-NMe2; lactam N-11)	1.2 nM	50 to 100 nM
CC[C@H](C)[C@@H]1NC(=O)[C@H](CC(C)C)N(C)C(=O)C[C@@H](C(=O)N(C)C)N(C)C(=O)[C@H](C2CCCCC2)N(C)C(=O)C2(CCCC2)NC(=O)[C@@H]2CCCN2C(=O)[C@H](CCc2ccc(C(F)(F)F)c(Cl)c2)NC(=O)CN(C)C(=O)[C@H](CC2CCCCC2)N(C)C(=O)CN(C)C(=O)CN(C)C1=O [Compound 1729] ([NMeL]I[Sar][Sar][NMeCha][Sar][hPhe(3-Cl-4-CF3)]P[Ac5c][NMeChg][NMeD]-NMe2; lactam N-11)	0.44 nM	20 to 50 nM
CC[C@H](C)[C@@H]1NC(=O)[C@H](CC(C)C)N(C)C(=O)C[C@@H](C(=O)N2CCCCC2)N(C)C(=O)[C@H](C2CCCCC2)N(C)C(=O)C2(CCCC2)NC(=O)[C@@H]2CCCN2C(=O)[C@H](CCc2ccc(C(F)(F)F)c(Cl)c2)NC(=O)CN(C)C(=O)[C@H](COC2CC2)N(C)C(=O)CN(C)C(=O)CN(C)C1=O [Compound 1731] ([NMeL]I[Sar][Sar][NMeS](Cyclopropyl)[Sar][hPhe(3-Cl-4-CF3)]P[Ac5c][NMeChg][NMeD]-Piperidide; lactam N-11)	1.9 nM	100 to 500 nM
CCCCC[C@H]1C(=O)N[C@@H]([C@@H](C)CC)C(=O)N(C)CC(=O)N(C)CC(=O)N(C)[C@@H](CC2CCCCC2)C(=O)N(C)CC(=O)N[C@@H](CCc2ccc(C(F)(F)F)c(Cl)c2)C(=O)N2CCC[C@H]2C(=O)NC2(CCCC2)C(=O)N(C)[C@@H](C2CCCCC2)C(=O)N(C)[C@H](C(=O)N2CCCCC2)CC(=O)N1C [Compound 1735] ([NMeAhp(2)]I[Sar][Sar][NMeCha][Sar][hPhe(3-Cl-4-CF3)]P[Ac5c][NMeChg][NMeD]-Piperidide; lactam N-11)	1.1 nM	50 to 100 nM
CC[C@H](C)[C@@H]1NC(=O)[C@H](CC(C)C)N(C)C(=O)C[C@@H](C(=O)N2CCCCC2)N(C)C(=O)[C@H](C(C)C)N(C)C(=O)C2(CCCC2)NC(=O)[C@@H]2CCCN2C(=O)[C@H](CCc2ccc(C(F)(F)F)c(Cl)c2)NC(=O)CN(C)C(=O)[C@H](COC2CC2)N(C)C(=O)[C@@H]2CCN2C(=O)[C@H](C)N(C)C1=O [Compound 1738] ([NMeL]I[NMeA][Aze][NMeS](Cyclopropyl)[Sar][hPhe(3-Cl-4-CF3)]P[Ac5c][NMeV][NMeD]-Piperidide; lactam N-11)	11 nM	100 to 500 nM
CC[C@H](C)[C@@H]1NC(=O)[C@H](CC(C)C)N(C)C(=O)C[C@@H](C(=O)N2CCCCC2)N(C)C(=O)[C@H](C(C)C)N(C)C(=O)C2(CCCC2)NC(=O)[C@@H]2CCCN2C(=O)[C@H](CCc2ccc(C(F)(F)F)c(Cl)c2)NC(=O)CN(C)C(=O)[C@H](CC2CCCC2)N(C)C(=O)[C@@H]2CCN2C(=O)[C@H](C)N(C)C1=O [Compound 1739] ([NMeL]I[NMeA][Aze][NMeAla(cPent)][Sar][hPhe(3-Cl-4-CF3)]P[Ac5c][NMeV][NMeD]-Piperidide; lactam N-11)	4.7 nM	100 to 500 nM
CCCC[C@H]1C(=O)N[C@@H]([C@@H](C)CC)C(=O)N(C)CC(=O)N(C)CC(=O)N(C)[C@@H](CC2CCCCC2)C(=O)N(C)CC(=O)N[C@@H](CCc2ccc(C(F)(F)F)c(Cl)c2)C(=O)N2CCC[C@H]2C(=O)NC2(CCCC2)C(=O)N(C)[C@@H](C2CCCCC2)C(=O)N(C)[C@H](C(=O)N2CCCCC2)CC(=O)N1C [Compound 1740] ([NMeNle]I[Sar][Sar][NMeCha][Sar][hPhe(3-Cl-4-CF3)]P[Ac5c][NMeChg][NMeD]-Piperidide; lactam N-11)	0.79 nM	50 to 100 nM
CC(C)C[C@H]1C(=O)N[C@@H](CC(F)(F)F)C(=O)N(C)CC(=O)N(C)CC(=O)N(C)[C@@H](CC2CCCCC2)C(=O)N(C)CC(=O)N[C@@H](CCc2ccc(C(F)(F)F)c(Cl)c2)C(=O)N2CCC[C@H]2C(=O)NC2(CCCC2)C(=O)N(C)[C@@H](C2CCCCC2)C(=O)N(C)[C@H](C(=O)N2CCCCC2)CC(=O)N1C [Compound 1744] ([NMeL][Abu(4,4,4-F3)][Sar][Sar][NMeCha][Sar][hPhe(3-Cl-4-CF3)]P[Ac5c][NMeChg][NMeD]-Piperidide; lactam N-11)	4 nM	100 to 500 nM
CC[C@H](C)[C@@H]1NC(=O)[C@H](CC(C)C)N(C)C(=O)C[C@@H](C(=O)N2CCCC2)N(C)C(=O)[C@H](C(C)C)N(C)C(=O)C2(CCCC2)NC(=O)[C@@H]2CCCN2C(=O)[C@H](CCc2ccc(C(F)(F)F)c(Cl)c2)NC(=O)CN(C)C(=O)[C@H](Cc2ccc(C)cc2)N(C)C(=O)CN(C)C(=O)CN(C)C1=O [Compound 1749] ([NMeL]I[Sar][Sar][NMePhe(4-Me)][Sar][hPhe(3-Cl-4-CF3)]P[Ac5c][NMeV][NMeD]-Pyrrolidide; lactam N-11)	0.74 nM	100 to 500 nM
